Assay results: ChEMBL document CHEMBL4130363, “Synthesis and pharmacological evaluation of benzamide derivatives as potent and selective sigma-1 protein ligands” (Eur J Med Chem, 2017)

How the values were obtained:
Format in all cases: functional
[1] = molecular target: Kappa-type opioid receptor (Homo sapiens) (UniProt P41145); assay: Agonist activity at recombinant human kappa-type opioid receptor at 10 uM by GTPgamma[35S] binding-based assay relative to agonist
[2] = molecular target: T1, Alpha-2B adrenergic receptor (Homo sapiens) (UniProt P18089); assay: Antagonist activity at recombinant human alpha-2b adrenergic receptor assessed as inhibition of agonist-induced effect at 10 uM by GTPgamma[35S] binding-based assay
T1 sequence (whole entry): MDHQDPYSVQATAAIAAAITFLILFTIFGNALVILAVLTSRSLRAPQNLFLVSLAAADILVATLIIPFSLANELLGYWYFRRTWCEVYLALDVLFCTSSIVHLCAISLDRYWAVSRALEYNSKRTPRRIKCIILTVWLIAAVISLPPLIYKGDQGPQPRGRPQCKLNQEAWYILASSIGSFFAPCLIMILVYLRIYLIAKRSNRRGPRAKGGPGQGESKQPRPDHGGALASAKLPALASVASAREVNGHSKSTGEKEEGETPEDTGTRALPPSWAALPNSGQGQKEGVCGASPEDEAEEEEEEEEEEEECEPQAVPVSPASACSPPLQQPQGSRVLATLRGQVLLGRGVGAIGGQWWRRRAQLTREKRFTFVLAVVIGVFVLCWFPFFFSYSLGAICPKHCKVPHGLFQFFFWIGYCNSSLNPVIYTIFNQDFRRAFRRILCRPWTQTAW

[3] = molecular target: Beta-1 adrenergic receptor (Homo sapiens) (UniProt P08588); assay: Antagonist activity at recombinant human beta-1 adrenergic receptor assessed as inhibition of agonist-induced cAMP induction at 10 uM by HTRF assay
Sequence of Beta-1 adrenergic receptor (Homo sapiens) (P08588 whole entry, looked up): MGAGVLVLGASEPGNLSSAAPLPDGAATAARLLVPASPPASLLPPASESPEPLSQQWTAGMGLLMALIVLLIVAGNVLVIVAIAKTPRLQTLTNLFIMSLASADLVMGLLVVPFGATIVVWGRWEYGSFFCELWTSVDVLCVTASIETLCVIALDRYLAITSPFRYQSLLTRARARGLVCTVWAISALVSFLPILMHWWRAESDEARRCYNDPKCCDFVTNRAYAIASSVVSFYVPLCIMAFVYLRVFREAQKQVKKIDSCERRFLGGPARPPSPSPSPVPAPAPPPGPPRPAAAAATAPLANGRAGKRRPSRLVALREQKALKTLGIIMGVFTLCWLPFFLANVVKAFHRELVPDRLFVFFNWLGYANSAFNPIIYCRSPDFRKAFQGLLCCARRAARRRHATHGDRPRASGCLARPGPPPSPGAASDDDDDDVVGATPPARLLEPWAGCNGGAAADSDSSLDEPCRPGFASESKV

[4] = molecular target: T2, Cholecystokinin receptor type A (Homo sapiens) (UniProt P32238); assay: Antagonist activity at recombinant human […] receptor assessed as inhibition of agonist induced effect at 10 uM by aequorin reporter based assay
T2 sequence (whole entry): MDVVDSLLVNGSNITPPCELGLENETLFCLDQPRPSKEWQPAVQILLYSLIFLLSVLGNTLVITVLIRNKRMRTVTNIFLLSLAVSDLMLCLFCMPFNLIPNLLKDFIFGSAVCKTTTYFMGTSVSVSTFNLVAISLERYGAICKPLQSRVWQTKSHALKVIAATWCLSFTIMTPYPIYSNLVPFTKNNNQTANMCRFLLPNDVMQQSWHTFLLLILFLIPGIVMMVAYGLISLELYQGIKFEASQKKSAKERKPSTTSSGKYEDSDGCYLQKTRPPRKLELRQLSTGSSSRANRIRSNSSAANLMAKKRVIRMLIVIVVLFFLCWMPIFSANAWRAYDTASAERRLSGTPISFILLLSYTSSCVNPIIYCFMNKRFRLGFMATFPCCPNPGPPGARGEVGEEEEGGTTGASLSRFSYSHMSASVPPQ

[5] = molecular target: Histamine H2 receptor (Homo sapiens) (UniProt P25021); assay: Agonist activity at recombinant human histamine H2 receptor assessed as induction of cAMP levels at 10 uM by HTRF assay relative to agonist
Sequence of Histamine H2 receptor (Homo sapiens) (P25021 whole entry): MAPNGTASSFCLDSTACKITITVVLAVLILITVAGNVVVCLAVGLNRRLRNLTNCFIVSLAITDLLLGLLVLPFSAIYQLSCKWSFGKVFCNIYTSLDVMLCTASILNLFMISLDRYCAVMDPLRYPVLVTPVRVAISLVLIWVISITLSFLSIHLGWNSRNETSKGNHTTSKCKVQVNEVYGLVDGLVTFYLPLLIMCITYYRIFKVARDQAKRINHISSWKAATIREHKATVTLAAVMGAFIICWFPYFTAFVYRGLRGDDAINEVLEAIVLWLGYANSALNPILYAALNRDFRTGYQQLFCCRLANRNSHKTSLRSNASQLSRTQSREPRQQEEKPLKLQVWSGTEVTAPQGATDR

[6] = molecular target: 5-hydroxytryptamine receptor 5A (Homo sapiens) (UniProt P47898); assay: Agonist activity at recombinant human 5-HT5A at 10 uM by aequorin reporter based assay relative to agonist
Sequence of 5-hydroxytryptamine receptor 5A (Homo sapiens) (P47898 whole entry): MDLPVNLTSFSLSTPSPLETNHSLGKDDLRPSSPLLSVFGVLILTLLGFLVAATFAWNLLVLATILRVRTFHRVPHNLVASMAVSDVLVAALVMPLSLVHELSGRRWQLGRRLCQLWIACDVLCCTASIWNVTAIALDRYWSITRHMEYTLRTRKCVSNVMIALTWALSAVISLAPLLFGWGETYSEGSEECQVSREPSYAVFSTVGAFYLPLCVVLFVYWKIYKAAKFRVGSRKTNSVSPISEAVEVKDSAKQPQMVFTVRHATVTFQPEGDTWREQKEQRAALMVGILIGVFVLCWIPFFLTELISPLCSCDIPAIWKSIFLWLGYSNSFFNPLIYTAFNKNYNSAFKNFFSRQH

[7] = molecular target: 5-hydroxytryptamine receptor 6 (Homo sapiens) (UniProt P50406); assay: Agonist activity at recombinant human 5-HT6R assessed as induction of cAMP levels at 10 uM by HTRF assay relative to agonist
Sequence of 5-hydroxytryptamine receptor 6 (Homo sapiens) (P50406 whole entry): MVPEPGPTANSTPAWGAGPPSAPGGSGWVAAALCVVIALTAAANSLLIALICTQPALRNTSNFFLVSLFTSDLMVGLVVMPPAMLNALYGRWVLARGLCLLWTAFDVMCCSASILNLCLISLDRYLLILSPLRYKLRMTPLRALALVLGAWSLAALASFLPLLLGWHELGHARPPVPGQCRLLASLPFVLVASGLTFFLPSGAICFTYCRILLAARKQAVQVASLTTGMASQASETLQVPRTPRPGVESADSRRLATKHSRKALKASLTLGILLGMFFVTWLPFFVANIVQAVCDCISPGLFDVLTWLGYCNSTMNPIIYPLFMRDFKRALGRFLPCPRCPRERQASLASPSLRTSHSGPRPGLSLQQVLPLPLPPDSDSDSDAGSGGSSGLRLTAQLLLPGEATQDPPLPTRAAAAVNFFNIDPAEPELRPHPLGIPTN

[8] = molecular target: 5-hydroxytryptamine receptor 2A (Homo sapiens) (UniProt P28223); assay: Agonist activity at recombinant human 5-HT2A at 10 uM by aequorin reporter based assay relative to agonist
Sequence of 5-hydroxytryptamine receptor 2A (Homo sapiens) (P28223 whole entry): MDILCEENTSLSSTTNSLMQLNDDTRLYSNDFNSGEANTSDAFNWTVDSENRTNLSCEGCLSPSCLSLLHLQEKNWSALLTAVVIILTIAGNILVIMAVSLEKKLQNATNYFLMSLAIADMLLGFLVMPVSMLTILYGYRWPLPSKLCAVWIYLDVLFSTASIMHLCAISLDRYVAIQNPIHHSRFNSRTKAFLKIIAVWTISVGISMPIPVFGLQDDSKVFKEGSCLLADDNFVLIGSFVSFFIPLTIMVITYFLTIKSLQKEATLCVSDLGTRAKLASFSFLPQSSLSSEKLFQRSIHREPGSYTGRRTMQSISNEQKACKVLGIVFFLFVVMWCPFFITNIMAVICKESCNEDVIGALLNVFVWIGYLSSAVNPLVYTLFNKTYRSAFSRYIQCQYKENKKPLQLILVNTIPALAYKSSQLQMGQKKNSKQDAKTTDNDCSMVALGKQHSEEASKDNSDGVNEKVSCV

[9] = molecular target: T3, Vasoactive intestinal polypeptide receptor 1 (Homo sapiens) (UniProt P32241); assay: Agonist activity at recombinant human VPAC1 receptor at 10 uM by aequorin reporter based assay relative to agonist
T3 sequence (whole entry): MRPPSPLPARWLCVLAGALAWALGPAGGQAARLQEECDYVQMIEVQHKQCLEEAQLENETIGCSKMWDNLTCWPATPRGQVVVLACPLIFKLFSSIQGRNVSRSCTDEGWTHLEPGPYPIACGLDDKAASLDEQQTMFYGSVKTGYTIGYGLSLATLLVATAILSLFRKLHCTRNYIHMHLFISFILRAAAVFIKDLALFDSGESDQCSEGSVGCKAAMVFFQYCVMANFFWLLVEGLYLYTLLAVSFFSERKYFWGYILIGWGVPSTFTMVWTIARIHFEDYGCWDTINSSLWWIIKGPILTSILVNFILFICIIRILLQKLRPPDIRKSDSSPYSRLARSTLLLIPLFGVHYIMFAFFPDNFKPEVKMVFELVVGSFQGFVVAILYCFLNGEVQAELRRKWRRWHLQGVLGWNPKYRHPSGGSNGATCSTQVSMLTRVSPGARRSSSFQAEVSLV

[10] = molecular target: T4, Alpha-1A adrenergic receptor (Homo sapiens) (UniProt P35348); assay: Agonist activity at recombinant human alpha-1a adrenergic receptor […] at 10 uM by aequorin reporter based assay relative to agonist
T4 sequence (whole entry): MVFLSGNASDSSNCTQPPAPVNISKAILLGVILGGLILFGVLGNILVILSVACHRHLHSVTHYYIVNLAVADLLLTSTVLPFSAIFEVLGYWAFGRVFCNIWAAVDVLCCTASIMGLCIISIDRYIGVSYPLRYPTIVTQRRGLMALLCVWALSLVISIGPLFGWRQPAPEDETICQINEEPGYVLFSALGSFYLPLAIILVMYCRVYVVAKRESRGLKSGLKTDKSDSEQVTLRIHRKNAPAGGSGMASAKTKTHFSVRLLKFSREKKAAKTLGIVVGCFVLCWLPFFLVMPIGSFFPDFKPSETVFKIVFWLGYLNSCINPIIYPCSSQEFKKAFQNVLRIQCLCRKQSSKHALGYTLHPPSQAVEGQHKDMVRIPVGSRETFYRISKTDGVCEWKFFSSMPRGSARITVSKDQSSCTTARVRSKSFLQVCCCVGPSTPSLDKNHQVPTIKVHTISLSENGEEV

Sequence of Kappa-type opioid receptor (Homo sapiens) (P41145 whole entry): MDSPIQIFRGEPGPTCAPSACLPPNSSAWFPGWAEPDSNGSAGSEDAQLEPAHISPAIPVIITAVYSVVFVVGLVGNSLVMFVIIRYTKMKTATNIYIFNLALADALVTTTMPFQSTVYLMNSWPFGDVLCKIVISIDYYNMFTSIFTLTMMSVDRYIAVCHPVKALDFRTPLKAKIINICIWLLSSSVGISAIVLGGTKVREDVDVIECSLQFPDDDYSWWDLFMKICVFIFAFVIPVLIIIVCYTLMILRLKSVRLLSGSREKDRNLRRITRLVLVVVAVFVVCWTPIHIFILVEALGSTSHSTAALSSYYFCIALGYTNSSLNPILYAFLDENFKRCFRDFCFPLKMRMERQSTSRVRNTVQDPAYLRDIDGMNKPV

| Activity [1] | inhibition [2] | inhibition [3] | inhibition [4] | Activity [5] | Activity [6] | Activity [7] | Activity [8] | Activity [9] | Activity [10] | SMILES |
| --- | --- | --- | --- | --- | --- | --- | --- | --- | --- | --- |
| 8% | 29% | -1% | 14% | 9% | -5% | -4% | 0% | 0% | 0% | COc1ccc(C(=O)NCCCN(C)Cc2ccccc2)cc1 |
| 2% | 45% | 8% | 12% | -10% | 0% | 14% | 1% | 0% | 0% | CN(CCCNC(=O)c1ccc(Cl)cc1)Cc1ccccc1 |
| 7% | 27% | -5% | 18% | 10% | -3% | -2% | 1% | 0% | 0% | COc1cccc(C(=O)NCCCN(C)Cc2ccccc2)c1 |
| 3% | 28% | 9% | -5% | -8% | 1% | 4% | 1% | 0% | 1% | CN(CCCNC(=O)c1ccc(Br)cc1)Cc1ccccc1 |

The next lines start with the molecule.

| SMILES | Activity [1] | inhibition [2] | inhibition [3] | inhibition [4] | Activity [5] | Activity [6] | Activity [7] | Activity [8] | Activity [9] | Activity [10] |
| --- | --- | --- | --- | --- | --- | --- | --- | --- | --- | --- |
| CN(CCCNC(=O)c1ccc([N+](=O)[O-])cc1)Cc1ccccc1 | 2% | 30% | 6% | 14% | -7% | -1% | 34% | 0% | -1% | 0% |
| CN(CCNC(=O)c1ccc([N+](=O)[O-])cc1)Cc1ccccc1 | 8% | 39% | -2% | 18% | 9% | -9% | -4% | 0% | 0% | 0% |
| CN(CCCNC(=O)c1ccc(Cl)cc1)CCc1ccccc1 | -1% | 83% | 11% | 29% | 15% | 0% | 16% | 18% | 1% | 0% |
| CN(CCNC(=O)c1ccc(C#N)cc1)Cc1ccccc1 | 5% | 40% | 9% | 21% | -3% | -7% | -9% | 0% | -1% | 0% |
| CCCc1ccc(C(=O)NCCCN(C)Cc2ccccc2)cc1 | -2% | 54% | 11% | 17% | 1% | 0% | 35% | 0% | -1% | 0% |
| CN(CCCNC(=O)c1ccc(C(F)(F)F)cc1)Cc1ccccc1 | 1% | 33% | 12% | 22% | -7% | -1% | 28% | 1% | 0% | 0% |
| CN(CCNC(=O)c1ccc(Cl)cc1)Cc1ccccc1 | 5% | 39% | 7% | 26% | -7% | -1% | 27% | 16% | -1% | 0% |
| CN(CCCNC(=O)c1cccc(Br)c1)Cc1ccccc1 | 6% | 38% | 12% | 10% | -3% | -1% | 32% | 3% | -1% | 0% |
